From EP1200395B1, “UREA DERIVATIVES AS INHIBITORS OF CCR-3 RECEPTOR” (KIRIN BEER KABUSHIKI KAISHA, priority 1999, dated 2001)

Target: T1, CCR-3 (Homo sapiens, UniProt P51677)
T1 sequence (P51677 1-355): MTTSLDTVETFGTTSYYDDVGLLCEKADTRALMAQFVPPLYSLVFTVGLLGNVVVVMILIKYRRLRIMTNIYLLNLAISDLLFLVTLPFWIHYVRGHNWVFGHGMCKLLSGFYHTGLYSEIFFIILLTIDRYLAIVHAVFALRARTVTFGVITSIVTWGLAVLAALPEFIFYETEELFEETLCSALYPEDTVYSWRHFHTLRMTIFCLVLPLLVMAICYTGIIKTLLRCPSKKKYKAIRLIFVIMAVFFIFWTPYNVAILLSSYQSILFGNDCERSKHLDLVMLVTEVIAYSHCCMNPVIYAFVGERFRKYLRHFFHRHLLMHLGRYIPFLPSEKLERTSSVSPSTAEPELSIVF
Assay: Eotaxin-induced chemotaxis of CCR-3 transfectant cells (CCR3/U937)
Assay type: cell-based
Set-up: expressed in transfected cells; host or cells: U937
Conditions: 10 µM test compound; eotaxin 1 x 10^-9 M; CCR3/U937 cells (Table 3a)
Protocol: The inhibitory activity of the compounds against eotaxin-induced chemotaxis was determined by measuring the inhibition of migration of CCR-3 transfectant cells (CCR3/U937), using a minor modification of the method described by Ohashi, H. et al., Int Arch Allergy Immunol. […] The chemotaxis assay was performed in a 24-well culture plate. Human eotaxin suspended in assay medium was added to the wells at 1 x 10^-9 M along with test compounds at various concentrations. For a positive control, eotaxin was added to the wells without a test compound, and for a negative control, neither eotaxin nor a test compound was added to the wells. Chemotaxicell (Kurabo Co., Ltd.) having 5 micrometers pore size were inserted into each well and 100 micro liters of CCR-3 transfectant cells suspension were added to the top chamber. The plates were incubated at 37 °C for 1 hour. After incubation, migrated cells in lower wells were diluted and counted by particle size distribution analyzer (CDP-500, Sysmex Co., Ltd.).

Row | Chemotaxis Assay 10 µM (inhibition %) [%] | Structure (SMILES)
1 | 34 | COC(=O)CCCN(CCCNC(=O)Nc1ccc(Br)cc1)Cc1ccncc1 [Compound 48]
2 | 89 | O=C(O)CCCN(CCCNC(=O)Nc1ccc(Br)cc1)Cc1ccc2c(c1)OCO2 [Compound 70]
3 | 53 | N#Cc1ccc(CN(CCCNC(=O)Nc2ccccc2)CCc2ccc(Cl)cc2)cc1 [Compound 291]
4 | 100 | CC(c1ccc([N+](=O)[O-])cc1)N(CCCNC(=O)Nc1ccc(Br)cc1)CCCC(=O)O (centres unmarked) [Compound 259]
5 | 100 | CCOC(=O)CCCN(CCCNC(=O)Nc1ccc(Br)cc1)C1CCCc2ccccc21 (centres unmarked) [Compound 184, Ethyl 4-[[3-(4-bromophenylureido)propyl](1,2,3,4-tetrahydro-1-naphthyl)amino]burylate]
6 | 100 | O=C(O)CCCN(CCCNC(=O)Nc1ccc(OC(F)(F)F)cc1)C1CCCc2ccccc21 (centres unmarked) [Compound 266]
7 | 100 | CC(=O)c1ccc(NC(=O)NCCCN(CCCC(=O)O)C2CCCc3ccccc32)cc1 (centres unmarked) [Compound 278]
8 | 100 | COC(=O)CCCCN(CCCNC(=O)Nc1ccccc1)CCc1ccc(Cl)cc1 [Compound 241]
9 | 86 | CCN(CCCNC(=O)Nc1ccccc1)CCc1ccccc1 [Compound 11]
10 | 76 | O=C(O)CCCN(CCCNC(=O)Nc1ccc(-c2ccccc2)cc1)C1CCCc2ccccc21 (centres unmarked) [Compound 277]
11 | 100 | COC(=O)CCCN(CCCNC(=O)Nc1ccc(Br)cc1)[C@@H]1CCCc2ccccc21 [Compound 180, Methyl 4-[[3-(4-bromophenylureido)propyl][(1R)-1,2,3,4-tetrahydro-1-naphthyl]amino]burylate]
12 | 44 | O=C(O)CCCN(CCCNC(=O)Nc1ccc(Br)cc1)CCC(c1ccccc1)c1ccccc1 [Compound 76]
13 | 100 | O=C(O)CCCN(CCCNC(=O)Nc1ccc(Br)cc1)C1CCc2ccccc21 (centres unmarked) [Compound 173, 4-[[3-(4-Bromopbenylureido)propyl](1-indanyl)amino]butanoic acid]
14 | 100 | O=C(NCCCN(CCc1ccc(Cl)cc1)Cc1ccncc1)Nc1ccccc1 [Compound 24]
15 | 60 | COC(=O)CCCN(CCCNC(=O)Nc1ccccc1)CCc1ccc(Cl)cc1 [Compound 274]
16 | 100 | CSc1ccc(NC(=O)NCCCN(CCCC(=O)O)C2CCCc3ccccc32)cc1 (centres unmarked) [Compound 264]
17 | 100 | CCN(CCCNC(=O)Nc1ccccc1)CCc1cccc(Cl)c1 [Compound 233]
18 | 19 | O=C(O)CCCN(CCCNC(=O)Nc1ccccc1-c1ccccc1)C1CCCc2ccccc21 (centres unmarked) [Compound 85]
19 | 100 | COCCN(CCCNC(=O)Nc1ccccc1)CCc1ccc(Cl)cc1 [Compound 275]

Same assay, conditions: 10 µM test compound; eotaxin 1 x 10^-9 M; CCR3/U937 cells (Table 3c)

Row | Chemotaxis Assay 10 µM (inhibition %) [%] | Structure (SMILES)
20 | 100 | CC[N+](CCCNC(=O)Nc1ccccc1)(CCc1ccc(Cl)cc1)Cc1ccc(C)cc1.[I-] (centres unmarked) [Compound 297]
21 | 100 | CC[N+](CCCNC(=O)Nc1ccccc1)(CCc1ccc(Cl)cc1)Cc1ccc(-c2ccccc2)cc1.[I-] (centres unmarked) [compound 330]
22 | 100 | CC[N+](CCCNC(=O)Nc1ccccc1)(CCc1ccc(Cl)cc1)Cc1ccc(C)c(C)c1.[I-] (centres unmarked) [compound 353]
23 | 100 | CC[N+](CCCNC(=O)Nc1ccc(Cl)c(Cl)c1)(CCc1ccc(Cl)cc1)Cc1ccccc1.[I-] (centres unmarked) [compound 325]
24 | 100 | CCC[N+](CC)(CCCNC(=O)Nc1ccc(Br)cc1)CCc1ccc(Cl)cc1.[I-] (centres unmarked) [Compound 295]
25 | 100 | CC[N+](CCCNC(=O)Nc1ccccc1)(CCc1ccc(Cl)cc1)Cc1ccc(Cl)c(Cl)c1.[I-] (centres unmarked) [compound 349]
26 | 100 | CC[N+](CC)(CCCNC(=O)Nc1ccccc1)CCc1ccccc1Cl.[I-] [Compound 308]
27 | 100 | CC[N+](CCCNC(=O)Nc1ccccc1)(CCc1ccc(Cl)cc1)CCc1ccc(Cl)cc1.[I-] [compound 317]

Same assay, conditions: U-937; 10 µM test compound; eotaxin 1 x 10^-9 M; CCR3/U937 cells (Table 3a)

Row | inhibition at 10 µM [%] | Structure (SMILES)
28 | 100 | CCN(CCCNC(=O)Nc1ccccc1OC)CCc1ccc(Cl)cc1 [Compound 9]
29 | 50 | COC(=O)CCCN(CCCNC(=O)Nc1ccc(Br)cc1)CCc1ccc(OC)c(OC)c1 [Compound 43]
30 | 100 | CCN(CCCNC(=O)Nc1ccc([N+](=O)[O-])cc1)CCc1ccc(Cl)cc1 [Compound 2, N-(4-Nitrophenylcarbamoyl)-N'-[2-(4-chlorophenyl)ethyl]-N'-ethyl-1,3-diaminopropane]
31 | 98 | O=C(O)CCCN(CCCCNC(=O)Nc1ccc(Br)cc1)C1CCCc2ccccc21 (centres unmarked) [Compound 62, 4-[[4-(4-Bromophenylureido)butyl](1,2,3,4-tetrahydro-1-naphthyl)-amino]butanoic acid]
32 | 97 | CN(CCCNC(=O)Nc1ccccc1)CCc1ccc(Cl)cc1 [Compound 27]

Same assay, conditions: test compound 0.1 µg/ml; eotaxin 1 x 10^-9 M; CCR3/U937 transfectants; 37 °C, 1 hour

Row | Chemotaxis Assay 0.1 µg/ml (inhibition %) [%] | Structure (SMILES)
33 | 100 | CC[N+](CCCNC(=O)Nc1ccc(Br)cc1)(CCOCCOC)CCc1cccc(Cl)c1.[I-] (centres unmarked) [compound 373]
34 | 64 | CC[N+](CCF)(CCCNC(=O)Nc1ccc(Cl)c(Cl)c1)CCc1ccccc1.[I-] (centres unmarked) [compound 370]
35 | 95 | C=C(C)C[N+](CC)(CCCNC(=O)Nc1ccccc1)CCc1ccc(Cl)cc1Cl.[I-] (centres unmarked) [compound 424]
36 | 82 | CC[N+](CCF)(CCCNC(=O)Nc1ccc(Cl)c(Cl)c1)CCc1cccc(Cl)c1.[I-] (centres unmarked) [compound 369]
37 | 98 | CC[N+](CCCNC(=O)Nc1ccccc1)(CCOCCOC)CCc1ccc(Cl)cc1Cl.[I-] (centres unmarked) [compound 414]
38 | 43 | CC[N+](CCF)(CCCNC(=O)Nc1ccc(Br)cc1)CCc1ccc(Cl)cc1Cl.[I-] (centres unmarked) [compound 383]
39 | 56 | CC[N+](CCCNC(=O)Nc1ccc(C(F)(F)F)cc1)(CCOCCOC)CCc1ccc(Cl)cc1Cl.[I-] (centres unmarked) [compound 388]
40 | 84 | CC[N+](CCCNC(=O)Nc1ccccc1)(CCOCCOC)CCc1ccc(Cl)cc1.[I-] (centres unmarked) [compound 412]
41 | 47 | CC[N+](CCF)(CCCNC(=O)Nc1ccc(C(F)(F)F)cc1)CCc1cccc(Cl)c1.[I-] (centres unmarked) [compound 391]
42 | 46 | CCC(CC)C[N+](CC)(CCCNC(=O)Nc1ccc(Br)cc1)CCc1ccc(Cl)c(Cl)c1.[I-] (centres unmarked) [compound 380]
43 | 68 | CC[N+](CCF)(CCCNC(=O)Nc1ccc(Br)cc1)CCc1cccc(F)c1.[I-] (centres unmarked) [compound 385]
44 | 51 | CC[N+](CCCNC(=O)Nc1ccc(OC)cc1)(CCOCCOC)CCc1cccc(F)c1.[I-] (centres unmarked) [compound 439]
45 | 52 | CC[N+](CCCNC(=O)Nc1ccccc1)(CCc1cccc(Cl)c1)CCC(C)C.[I-] (centres unmarked) [compound 407]
46 | 71 | CCC(CC)C[N+](CC)(CCCNC(=O)Nc1ccc(C#N)cc1)CCc1cccc(Cl)c1.[I-] (centres unmarked) [compound 402]
47 | 88 | C=C(C)C[N+](CC)(CCCNC(=O)Nc1ccc(Cl)c(Cl)c1)CCc1ccccc1.[I-] (centres unmarked) [compound 368]
